pKd: −log10 of the molar value.
Legend:
Pgk1 [1] = target: T1, Pgk1 (Homo sapiens, UniProt P00558); assay: Affinity for Pgk1 protein (Biacore T200); type: binding
T1 sequence (P00558 1-417): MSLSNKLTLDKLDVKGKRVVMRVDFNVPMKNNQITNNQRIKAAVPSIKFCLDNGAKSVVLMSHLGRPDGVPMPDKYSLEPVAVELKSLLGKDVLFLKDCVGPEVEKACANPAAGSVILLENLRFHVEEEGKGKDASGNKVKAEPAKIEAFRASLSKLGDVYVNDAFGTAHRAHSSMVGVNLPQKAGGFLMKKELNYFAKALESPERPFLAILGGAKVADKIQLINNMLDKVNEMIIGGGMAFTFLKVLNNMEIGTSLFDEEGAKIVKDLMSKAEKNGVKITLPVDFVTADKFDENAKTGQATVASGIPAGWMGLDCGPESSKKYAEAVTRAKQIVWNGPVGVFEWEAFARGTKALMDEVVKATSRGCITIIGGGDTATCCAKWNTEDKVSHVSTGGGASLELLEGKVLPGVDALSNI
Protocol: Example 30: Determination of Affinities of Compounds for Pgk1 Protein
Purified Pgk1 protein (with a concentration of 1 mg/mL) was immobilized on a Biacore T200 chip. […] The obtained curves can calculate parameters such as affinity and Rmax.

[2] = test system: SK-N-SH cells (Pgk1 knockdown); assay: Seahorse mitochondrial respiration in Pgk1-knockdown and normal SK-N-SH cells; type: cell-based, human; conditions: 10 μM
Protocol: Cellular mitochondrial stress was detected using a Seahorse XFe analyzer (XFe-24, Seahorse Bioscience, Billerica, MA, UAS) to measure the oxygen consumption rate (OCR). SH-SKN cell lines were seeded in a 24-well plate compatible with the Seahorse XFe analyzer. After 24 hours, cells were treated with DMSO (0.01%) or various drugs (10 μM). Cellular mitochondrial stress was detected 12 hours after drug treatment. For the mitochondrial stress test, 97.2 mL of Seahorse basal medium (Seahorse Bioscience, Billerica, MA, UAS) was taken and heated in a water bath to 37 °C, and 1 mL of a stock solution was added. The stock solution was prepared by mixing the following solutions: 1 mL of 200 mM L-glutamine solution (Sigma), 1 mL of 100 mM pyruvate solution (Sigma), and 800 μL of 2.5 M glucose solution, and the pH of the stock solution was adjusted to 7.4 with 1 M NaOH solution. Before detection, the probe plate was taken out, and 1 mL of XF Carlibrant solution (Seahorse Bioscience) was added to the probe plate. The plate was then incubated overnight in a CO2-free constant temperature incubator at 37 °C. After drug treatment, the cells were removed and washed twice with preheated Seahorse basal medium at 37 °C, ensuring that 500 μL of Seahorse basal medium remained in each well. The cells were incubated in a CO2-free constant temperature incubator at 37 °C for 1 hour. […]

db/db mice [3] = assay: Hypoglycemic effect in diabetic model db/db mice, intraperitoneal; type: in vivo; conditions: 4 hours
Protocol: Gene knockout db/db mice are a classic model of hyperglycemia and obesity. Under normal feeding conditions, mice aged 3 months or older developed hyperglycemia and obesity. After the mice were provided with only drinking water (fasted) for 6 hours, blood was collected from the tail of the mice to measure blood glucose values. Subsequently, different drugs, including saline (control), liraglutide at 0.6 mg/Kg, low-concentration T6 (T6 low, 0.1 mg/Kg), and high-concentration T6 (T6 high, 0.5 mg/Kg), were injected intraperitoneally. 4 hours later, blood was collected from the tail of the mice to measure the blood glucose levels. Each group consisted of 6 mice. Blood glucose levels before administration (Vbefore) and after administration (Vafter) were obtained for each mouse. The effect of the drug on blood glucose (%) was calculated as follows:
(Vbefore−Vafter)×100/Vbefore.

db/db mice [4] = assay: Long-term hypoglycemic and weight-loss effects in db/db mice, drinking water; type: in vivo; conditions: drinking water 7 days
Protocol: The hypoglycemic effect of the novel isoquinoline derivatives via intraperitoneal injection lasted no more than 6 hours. To determine the long-term hypoglycemic effect of T6, T6 was added to drinking water and administered to mice continuously for one week.
After 7 days of treatment, changes in glycated hemoglobin (HbA1c) level, insulin level in mouse blood, and body weight, were measured.

Pgk1 [5] = target: T1, Pgk1; assay: T6 binding affinity with Pgk1 by SPR; conditions: steady-state affinity model
Text: Surface plasmon resonance (SPR) was used to measure the interaction between the small molecule T6 and Pgk1. Equilibrium binding responses at increasing T6 concentrations were fitted using a steady-state affinity model. In FIG. 9, diamonds represent the measured response units (RU), and the black curve indicates the fitted binding isotherm. […] The vertical line marks the calculated KD value.

FUS-525-GFP = assay: Level of ALS-associated mutant FUS-GFP protein in primary mouse neurons (Western blot); type: cell-based; conditions: 5, 10 or 20 μM
Protocol: Primary mouse neurons were engineered to express GFP-tagged mutant FUS-525, an ALS-associated pathogenic FUS variant, and were treated with vehicle control or compound T6 at 5, 10, or 20 μM. Cell lysates were analyzed by Western blotting using antibodies detecting FUS-GFP, with GAPDH serving as a loading control. In FIG. 11, the FUS-GFP fusion protein was detected at approximately 96 kDa, whereas GAPDH was detected at approximately 38 kDa.

[6] = test system: MPTP-induced Parkinsonian mouse model; assay: MPTP-induced Parkinsonian mouse model, rotarod and TH Western blot (T6); type: in vivo; conditions: T6 0.15, 0.3 and 1.5 mg/kg
Protocol: Mice were administered MPTP at 20 mg/kg to induce Parkinsonian motor impairment and dopaminergic neuronal injury. […] In FIG. 13, A) motor coordination and endurance were assessed using the rotarod test and are expressed as the time remaining on the rotating rod. […] Actin was used as a loading control. […] Data are presented as mean±error bars, with individual points representing biological replicates. Significance of one-way ANOVA analysis is indicated as P<0.05 (*), P<0.01 (**), and P<0.001 (***).

Nc1nc(N2CCN(C(=O)[C@H]3CCCO3)CC2)cc2cc3c(cc12)OCC3 [Compound T6] was tested, and the pKd (Pgk1 [1]; + saturated ADP, read-out: Affinity (KD) in the presence of ADP) was under 3.00, the Rmax (Pgk1 [1]; drug alone, amount of small-molecule drug bound) was 106 RU and the “Basal and maximum respiratory rate, normal cells” value ([2]; normal (control) cells) was “activated both the basal respiratory rate and maximum respiratory rate”. For the same compound, the “Basal and maximum respiratory rate, shPgk1 knockdown cells” value ([2]; shPgk1 knockdown cells) was “this activity was absent in shPgk1 knockdown cells”, the “Hypoglycemic effect (low concentration)” value (db/db mice [3]; 0.1 mg/kg i.p.) was “significant hypoglycemic effects” and the “Hypoglycemic effect (high concentration)” value (db/db mice [3]; 0.5 mg/kg i.p.) was “significant hypoglycemic effects”. For the same compound, the “Glycated hemoglobin (HbA1c) level” value (db/db mice [4]; metformin 350 mg/kg, terazosin 0.3 mg/kg, T6 1.5 mg/kg) was “decrease in glycated hemoglobin (HbA1c) level”, the “Long-term hypoglycemic effect versus terazosin and metformin” value (db/db mice [4]; long-term oral administration) was “better hypoglycemic effect than that of terazosin and metformin” and the “Estimated Rmax” value (Pgk1 [5]) was 7.799 RU. For the same compound, the pKd (Pgk1 [5]; read-out: KD (approximately)) was about 4.65, the pKd (Pgk1 [5]; read-out: KD (fitted dissociation constant)) was 4.65 and the “Abundance of mutant FUS-GFP protein” value (FUS-525-GFP) was “reduced the abundance of mutant FUS-GFP protein”. The GAPDH level (FUS-525-GFP; loading control) was “remained largely unchanged”, the Rotarod performance ([6]; MPTP 20 mg/kg) was “improved rotarod performance in MPTP-treated mice, with significant protective effects” and the TH protein abundance ([6]; normalized to actin, vs MPTP alone) was “significantly increased relative TH abundance”.

Reference: patent US20260355182A1, “ISOQUINOLINE DERIVATIVE, SYNTHESIS METHOD THEREFOR, AND USE THEREOF” (Harbin Gloria Pharmaceuticals Co., Ltd., priority 2023, published 2026)
